From PubChem BioAssay (NCI)
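Five concentrations, 48 hours, 96-well plates. GI50 = concentration required for 50% inhibition of growth. TGI marks complete inhibition of growth.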

Tests used:
Assay in all cases: growth of human tumour cells (NCI), 48 h
786-0 renal = system: 786-0 renal
A498 renal = system: A498 renal
A549 NSCLC = system: A549 NSCLC
ACHN renal = system: ACHN renal
BT-549 breast = system: BT-549 breast
CAKI-1 renal = system: CAKI-1 renal
CCRF-CEM leukemia = system: CCRF-CEM leukemia
COLO 205 colon = system: COLO 205 colon
DU-145 prostate = system: DU-145 prostate
EKVX NSCLC = system: EKVX NSCLC
HCC-2998 colon = system: HCC-2998 colon
HCT-116 colon = system: HCT-116 colon
HCT-15 colon = system: HCT-15 colon
HL-60(TB) leukemia = system: HL-60(TB) leukemia
HOP-62 NSCLC = system: HOP-62 NSCLC
HOP-92 NSCLC = system: HOP-92 NSCLC
HS 578T breast = system: HS 578T breast
HT29 colon = system: HT29 colon
IGROV1 ovarian = system: IGROV1 ovarian
K-562 leukemia = system: K-562 leukemia
KM12 colon = system: KM12 colon
LOX IMVI melanoma = system: LOX IMVI melanoma
M14 melanoma = system: M14 melanoma
MALME-3M melanoma = system: MALME-3M melanoma
MCF7 breast = system: MCF7 breast
MDA-MB-231 breast = system: MDA-MB-231 breast
MDA-MB-435 = system: MDA-MB-435
MOLT-4 leukemia = system: MOLT-4 leukemia
NCI-H226 lung = system: NCI-H226 lung

## COc1ccc(-c2cnoc2-c2ccc(OC)cc2O)cc1
786-0 renal
  GI50: 5.31 µM
  TGI: 37.5 µM
A498 renal
  GI50: 1780 nM
  TGI: 8.49 µM
A549 NSCLC
  GI50: 4.08 µM
  TGI: 69.3 µM
ACHN renal
  GI50: 9.17 µM
  TGI: > 100 µM
BT-549 breast
  GI50: 9.73 µM
  TGI: 35.3 µM
CAKI-1 renal
  GI50: 4.31 µM
  TGI: > 100 µM
CCRF-CEM leukemia
  GI50: 3.09 µM
  TGI: > 100 µM
COLO 205 colon
  GI50: 9.5 µM
  TGI: 30.4 µM
DU-145 prostate
  GI50: 3.85 µM
  TGI: 15.8 µM
EKVX NSCLC
  GI50: 15.5 µM
  TGI: > 100 µM
HCC-2998 colon
  GI50: 5.27 µM
  TGI: 29.8 µM
HCT-116 colon
  GI50: 2820 nM
  TGI: 16.5 µM
HCT-15 colon
  GI50: 2560 nM
  TGI: > 100 µM
HL-60(TB) leukemia
  GI50: 2930 nM
  TGI: 16.8 µM
HOP-62 NSCLC
  GI50: 4.6 µM
  TGI: 35.7 µM
HOP-92 NSCLC
  GI50: 2420 nM
  TGI: 27.4 µM
HS 578T breast
  GI50: 1900 nM
  TGI: 6.69 µM
HT29 colon
  GI50: 3.54 µM
  TGI: 15.3 µM
IGROV1 ovarian
  GI50: 7.54 µM
  TGI: 92.1 µM
K-562 leukemia
  GI50: 534 nM
  TGI: > 100 µM
KM12 colon
  GI50: 2660 nM
  TGI: 15 µM
LOX IMVI melanoma
  GI50: 6.9 µM
  TGI: 26.2 µM
M14 melanoma
  GI50: 2690 nM
  TGI: 15 µM
MALME-3M melanoma
  GI50: 14.1 µM
  TGI: 49.5 µM
MCF7 breast
  GI50: 2850 nM
  TGI: 85.2 µM
MDA-MB-231 breast
  GI50: 3.32 µM
  TGI: 27.6 µM
MDA-MB-435
  GI50: 314 nM
  TGI: 1600 nM
MOLT-4 leukemia
  GI50: 3.36 µM
  TGI: 22.9 µM
NCI-H226 lung
  GI50: 12.8 µM
